Results from ChEMBL document CHEMBL1671858, “Coprevalence of plasmid-mediated quinolone resistance determinants QepA, Qnr, and AAC(6')-Ib-cr among 16S rRNA methylase RmtB-producing Escherichia coli isolates from pigs” (2008).

Tests used:
Type in all cases: functional
[1] = system: Escherichia coli; experiment: Antimicrobial activity against Escherichia coli isolate CQ2 transconjugant harboring 16S rRNA methylase RmtB and qepA by agar dilution method relative to recipient strain
[2] = system: Escherichia coli; experiment: Antimicrobial activity against Escherichia coli isolate GZ6 transconjugant harboring 16S rRNA methylase RmtB and qepA by agar dilution method relative to recipient strain
[3] = system: Escherichia coli; experiment: Antimicrobial activity against Escherichia coli isolate GZ13 transconjugant harboring 16S rRNA methylase RmtB and qepA by agar dilution method relative to recipient strain
[4] = system: Escherichia coli; experiment: Antimicrobial activity against Escherichia coli isolate GZ3 transconjugant harboring 16S rRNA methylase RmtB and qepA by agar dilution method relative to recipient strain
[5] = system: Escherichia coli; experiment: Antimicrobial activity against Escherichia coli isolate CQ7 transconjugant harboring 16S rRNA methylase RmtB and qepA, qnrS2, aac(6')-Ib-cr gene by agar dilution method relative to recipient strain
[6] = system: Escherichia coli; experiment: Antimicrobial activity against Escherichia coli isolate GZ12 transconjugant harboring 16S rRNA methylase RmtB and qepA by agar dilution method relative to recipient strain
[7] = system: Escherichia coli; experiment: Antimicrobial activity against Escherichia coli isolate CQ13 transconjugant harboring 16S rRNA methylase RmtB and qnrS1 by agar dilution method relative to recipient strain
[8] = system: Escherichia coli; experiment: Antimicrobial activity against Escherichia coli isolate GZ2 transconjugant harboring 16S rRNA methylase RmtB and qnrS1 by agar dilution method relative to recipient strain
[9] = system: Escherichia coli; experiment: Antimicrobial activity against Escherichia coli isolate CQ5 transconjugant harboring 16S rRNA methylase RmtB and qepA by agar dilution method relative to recipient strain
[10] = system: Escherichia coli; experiment: Antimicrobial activity against Escherichia coli isolate GZ15 transconjugant harboring 16S rRNA methylase RmtB and qepA by agar dilution method relative to recipient strain
[11] = system: Escherichia coli; experiment: Antimicrobial activity against Escherichia coli isolate CQ26 transconjugant harboring 16S rRNA methylase RmtB and qepA by agar dilution method relative to recipient strain
[12] = system: Escherichia coli; experiment: Antimicrobial activity against Escherichia coli isolate CQ10 transconjugant harboring 16S rRNA methylase RmtB and qepA by agar dilution method relative to recipient strain
[13] = system: Escherichia coli; experiment: Antimicrobial activity against Escherichia coli isolate CQ20 transconjugant harboring 16S rRNA methylase RmtB and qepA by agar dilution method relative to recipient strain
[14] = system: Escherichia coli; experiment: Antimicrobial activity against Escherichia coli isolate GZ14 transconjugant harboring 16S rRNA methylase RmtB and qepA by agar dilution method relative to recipient strain
[15] = system: Escherichia coli; experiment: Antimicrobial activity against Escherichia coli isolate CQ19 transconjugant harboring 16S rRNA methylase RmtB and qepA, aac(6')-Ib-cr gene by agar dilution method relative to recipient strain
[16] = system: Escherichia coli; experiment: Antimicrobial activity against Escherichia coli isolate GZ1 transconjugant harboring 16S rRNA methylase RmtB and qnrS1 by agar dilution method relative to recipient strain
[17] = system: Escherichia coli; experiment: Antimicrobial activity against Escherichia coli isolate CQ14 transconjugant harboring 16S rRNA methylase RmtB and qepA by agar dilution method relative to recipient strain
[18] = system: Escherichia coli; experiment: Antimicrobial activity against Escherichia coli isolate GZ10 transconjugant harboring 16S rRNA methylase RmtB and qepA, aac(6')-Ib-cr gene by agar dilution method relative to recipient strain
[19] = system: Escherichia coli; experiment: Antimicrobial activity against Escherichia coli isolate CQ1 transconjugant harboring 16S rRNA methylase RmtB and qnrB6 by agar dilution method relative to recipient strain
[20] = system: Escherichia coli; experiment: Antimicrobial activity against Escherichia coli isolate GZ11 transconjugant harboring 16S rRNA methylase RmtB and qepA by agar dilution method relative to recipient strain
[21] = system: Escherichia coli; experiment: Antimicrobial activity against Escherichia coli isolate CQ22 transconjugant harboring 16S rRNA methylase RmtB and qnrS1 by agar dilution method relative to recipient strain
[22] = system: Escherichia coli; experiment: Antimicrobial activity against Escherichia coli isolate GZ7 transconjugant harboring 16S rRNA methylase RmtB and qepA and qnrS1 by agar dilution method relative to recipient strain
[23] = system: Escherichia coli; experiment: Antimicrobial activity against Escherichia coli isolate CQ15 transconjugant harboring 16S rRNA methylase RmtB and qepA by agar dilution method relative to recipient strain
[24] = system: Escherichia coli; experiment: Antimicrobial activity against Escherichia coli isolate GZ5 transconjugant harboring 16S rRNA methylase RmtB and qepA by agar dilution method relative to recipient strain
[25] = system: Escherichia coli; experiment: Antimicrobial activity against Escherichia coli isolate CQ6 transconjugant harboring 16S rRNA methylase RmtB and qepA, qnrS2, aac(6')-Ib-cr gene by agar dilution method relative to recipient strain
[26] = system: Escherichia coli; experiment: Antimicrobial activity against Escherichia coli isolate GZ9 transconjugant harboring 16S rRNA methylase RmtB and qepA by agar dilution method relative to recipient strain
[27] = system: Escherichia coli; experiment: Antimicrobial activity against Escherichia coli isolate CQ4 transconjugant harboring 16S rRNA methylase RmtB and qepA by agar dilution method relative to recipient strain
[28] = system: Escherichia coli; experiment: Antimicrobial activity against Escherichia coli isolate GZ4 transconjugant harboring 16S rRNA methylase RmtB and qepA by agar dilution method relative to recipient strain
[29] = system: Escherichia coli; experiment: Antimicrobial activity against Escherichia coli isolate CQ16 transconjugant harboring 16S rRNA methylase RmtB and qepA, qnrS2, aac(6')-Ib-cr gene by agar dilution method relative to recipient strain
[30] = system: Escherichia coli; experiment: Antimicrobial activity against Escherichia coli isolate GZ8 transconjugant harboring 16S rRNA methylase RmtB and qepA by agar dilution method relative to recipient strain
[31] = system: Escherichia coli; experiment: Antimicrobial activity against Escherichia coli isolate CQ12 transconjugant harboring 16S rRNA methylase RmtB and qepA, qnrS2, aac(6')-Ib-cr gene by agar dilution method relative to recipient strain
[32] = system: Escherichia coli; experiment: Antimicrobial activity against Escherichia coli isolate CQ18 transconjugant harboring 16S rRNA methylase RmtB and qepA by agar dilution method relative to recipient strain
[33] = system: Escherichia coli; experiment: Antimicrobial activity against Escherichia coli isolate GZ16 transconjugant harboring 16S rRNA methylase RmtB and qepA by agar dilution method relative to recipient strain

CCn1cc(C(=O)O)c(=O)c2cc(F)c(N3CCNCC3)cc21 [NORFLOXACIN]
fold change (FC) [1]: 16 | fold change (FC) [2]: 8 | fold change (FC) [3]: 8 | fold change (FC) [4]: 16 | fold change (FC) [5]: 16 | fold change (FC) [6]: 16 | fold change (FC) [7]: 4 | fold change (FC) [8]: 2 | fold change (FC) [9]: 16 | fold change (FC) [10]: 4 | fold change (FC) [11]: 4 | fold change (FC) [12]: 32 | fold change (FC) [13]: 4 | fold change (FC) [14]: 16 | fold change (FC) [15]: 16 | fold change (FC) [16]: 16 | fold change (FC) [17]: 32 | fold change (FC) [18]: 16 | fold change (FC) [19]: 2 | fold change (FC) [20]: 4 | fold change (FC) [21]: 2 | fold change (FC) [22]: 16 | fold change (FC) [23]: 8 | fold change (FC) [24]: 16 | fold change (FC) [25]: 16 | fold change (FC) [26]: 16 | fold change (FC) [27]: 2 | fold change (FC) [28]: 4 | fold change (FC) [29]: 16 | fold change (FC) [30]: 8 | fold change (FC) [31]: 16 | fold change (FC) [32]: 8 | fold change (FC) [33]: 8

C[C@H]1COc2c(N3CCN(C)CC3)c(F)cc3c(=O)c(C(=O)O)cn1c23.C[C@H]1COc2c(N3CCN(C)CC3)c(F)cc3c(=O)c(C(=O)O)cn1c23.O [LEVOFLOXACIN]
fold change (FC) [1]: 4 | fold change (FC) [2]: 4 | fold change (FC) [3]: 2 | fold change (FC) [4]: 2 | fold change (FC) [5]: 1 | fold change (FC) [6]: 8 | fold change (FC) [7]: 4 | fold change (FC) [8]: 2 | fold change (FC) [9]: 1 | fold change (FC) [10]: 2 | fold change (FC) [11]: 1 | fold change (FC) [12]: 2 | fold change (FC) [13]: 2 | fold change (FC) [14]: 4 | fold change (FC) [15]: 1 | fold change (FC) [16]: 4 | fold change (FC) [17]: 2 | fold change (FC) [18]: 4 | fold change (FC) [19]: 1 | fold change (FC) [20]: 2 | fold change (FC) [21]: 1 | fold change (FC) [22]: 1 | fold change (FC) [23]: 1 | fold change (FC) [24]: 2 | fold change (FC) [25]: 4 | fold change (FC) [26]: 2 | fold change (FC) [27]: 1 | fold change (FC) [28]: 2 | fold change (FC) [29]: 2 | fold change (FC) [30]: 1 | fold change (FC) [31]: 2 | fold change (FC) [32]: 1 | fold change (FC) [33]: 4

CCn1cc(C(=O)O)c(=O)c2ccc(C)nc21 [NALIDIXIC ACID]
fold change (FC) [1]: 1 | fold change (FC) [2]: 1 | fold change (FC) [3]: 4 | fold change (FC) [4]: 8 | fold change (FC) [5]: 1 | fold change (FC) [6]: 1 | fold change (FC) [7]: 4 | fold change (FC) [8]: 4 | fold change (FC) [9]: 1 | fold change (FC) [10]: 1 | fold change (FC) [11]: 1 | fold change (FC) [12]: 1 | fold change (FC) [13]: 1 | fold change (FC) [14]: 1 | fold change (FC) [15]: 1 | fold change (FC) [16]: 4 | fold change (FC) [17]: 1 | fold change (FC) [18]: 16 | fold change (FC) [19]: 2 | fold change (FC) [20]: 2 | fold change (FC) [21]: 1 | fold change (FC) [22]: 16 | fold change (FC) [23]: 1 | fold change (FC) [24]: 1 | fold change (FC) [25]: 16 | fold change (FC) [26]: 4 | fold change (FC) [27]: 2 | fold change (FC) [28]: 2 | fold change (FC) [29]: 2 | fold change (FC) [30]: 4 | fold change (FC) [31]: 1 | fold change (FC) [32]: 1 | fold change (FC) [33]: 2
